{
  "source": "PubChem BioAssay AID1259411",
  "about": "(Chemical Carcinogenesis Research Information System (CCRIS), 2018)",
  "tested_on": "rodent carcinogenicity bioassays, tumor incidence",
  "assay": "CCRIS carcinogenicity studies",
  "summary_of_the_method": "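Archive of carcinogenicity, mutagenicity, tumor promotion and tumor inhibition results drawn from journals, NCI reports and other sources, expert-reviewed; covers 1985-2011 and is no longer updated.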",
  "note": "Activity calls are given as the source filed them. No rule for the calls is given here.",
  "data": [
    {"molecule": "CC(=O)Nc1ccc(CC(=O)O)cc1", "values": [
      {"measurement": "carcinogen call", "setting": "Species: MOUSE, Strain/Sex: B6C3F1/FEMALE, Route: ORAL, Dose: 0;300, 1000, 3000 MG/KG IN DIET FOR 78 WK (STUDY DURATION: 78 WK), Dose: 0;300, 1000, 3000 MG/KG IN DIET FOR 78 WK (STUDY DURATION: 78 WK)", "result": "inactive; negative"},
      {"measurement": "carcinogen call", "setting": "Species: MOUSE, Strain/Sex: B6C3F1/MALE, Route: ORAL, Dose: 0, 300, 1000, 3000 MG/KG IN DIET FOR 78 WK (STUDY DURATION: 78 WK), Dose: 0, 300, 1000, 3000 MG/KG IN DIET FOR 78 WK (STUDY DURATION: 78 WK)", "result": "inactive; negative"},
      {"measurement": "carcinogen call", "setting": "Species: RAT, Strain/Sex: F344/FEMALE, Route: ORAL, Dose: 0, 300, 1000, 3000 MG/KG/D IN DIET FOR 104 WK (STUDY DURATION: 104 WK), Dose: 0, 300, 1000, 3000 MG/KG/D IN DIET FOR 104 WK (STUDY DURATION: 104 WK)", "result": "inactive; negative"},
      {"measurement": "carcinogen call", "setting": "Species: RAT, Strain/Sex: F344/MALE, Route: ORAL, Dose: 0, 300, 1000, 3000 MG/KG/D IN DIET FOR 104 WK (STUDY DURATION: 104 WK), Dose: 0, 300, 1000, 3000 MG/KG/D IN DIET FOR 104 WK (STUDY DURATION: 104 WK)", "result": "inactive; negative"}
    ]},
    {"molecule": "OCCCl", "values": [
      {"measurement": "carcinogen call", "setting": "Species: MOUSE, Strain/Sex: CD-1/FEMALE, Route: DERMAL, Dose: 0, 7.5, 15 MG/ANIMAL IN 70% ETHANOL IN WATER 5 D/WK FOR 104 WK, Dose: 0, 7.5, 15 MG/ANIMAL IN 70% ETHANOL IN WATER 5 D/WK FOR 104 WK", "result": "inactive; negative"},
      {"measurement": "carcinogen call", "setting": "Species: MOUSE, Strain/Sex: CD-1/MALE, Route: DERMAL, Dose: 0, 7.5, 15 MG/ANIMAL IN 70% ETHANOL IN WATER 5 D/WK FOR 104 WK, Dose: 0, 7.5, 15 MG/ANIMAL IN 70% ETHANOL IN WATER 5 D/WK FOR 104 WK", "result": "inactive; negative"},
      {"measurement": "carcinogen call", "setting": "Species: RAT, Strain/Sex: F344/FEMALE, Route: DERMAL, Dose: 0, 50, 100 MG/KG IN 70% ETHANOL IN WATER 5 D/WK FOR 103 WK, Dose: 0, 50, 100 MG/KG IN 70% ETHANOL IN WATER 5 D/WK FOR 103 WK", "result": "inactive; negative"},
      {"measurement": "carcinogen call", "setting": "Species: RAT, Strain/Sex: F344/MALE, Route: DERMAL, Dose: 0, 50, 100 MG/KG IN 70% ETHANOL IN WATER 5 D/WK FOR 103 WK, Dose: 0, 50, 100 MG/KG IN 70% ETHANOL IN WATER 5 D/WK FOR 103 WK", "result": "inactive; negative"}
    ]},
    {"molecule": "COc1c2occc2cc2ccc(=O)oc12", "values": [
      {"measurement": "carcinogen call", "setting": "Species: RAT, Strain/Sex: F344/F, Route: GAVAGE, Dose: 0, 37.5, 75 MG/KG IN CORN OIL 5D/WK FOR 103 WK (STUDY DURATION: 106 WK), Dose: 0, 37.5, 75 MG/KG IN CORN OIL 5D/WK FOR 103 WK (STUDY DURATION: 106 WK)", "result": "inactive; negative"},
      {"measurement": "carcinogen call", "setting": "Species: RAT, Strain/Sex: F344/M, Route: GAVAGE, Dose: 0, 37.5, 75 MG/KG IN CORN OIL 5D/WK FOR 103 WK (STUDY DURATION: 106 WK), Dose: 0, 37.5, 75 MG/KG IN CORN OIL 5D/WK FOR 103 WK (STUDY DURATION: 106 WK), Tumor Site: Type of Lesion: SUBCUTANEOUS TISSUE: FIBROMA, SUBCUTANEOUS TISSUE: FIBROMA OR SARCOMA, LUNG: ALVEOLAR/BRONCHIOLAR ADENOMA, KIDNEY: TUBUL, Tumor Site: Type of Lesion: SUBCUTANEOUS TISSUE: FIBROMA, SUBCUTANEOUS TISSUE: FIBROMA OR SARCOMA, LUNG: ALVEOLAR/BRONCHIOLAR ADENOMA, KIDNEY: TUBUL", "result": "active; positive"}
    ]}
  ]
}
